This note sets out measurements from BindingDB's records for doi:10.1038/nchembio.2168 (Novartis Institutes, 2016).

Experiment [1] has as its target T1, Serine/threonine-protein kinase WNK1 [1-491] (Homo sapiens, UniProt Q9H4A3).
T1 construct: 1-491
As to the kind of experiment: In vitro MBP Phosphorylation Assay (MBP). Conditions: pH 7.3; 25 °C. As to the method:
(§1) Each well of the MBP-coated ScintiPlates held 100 ul of a solution containing 20 mM HEPES pH 7.3, 5 mM MnCl2 (WNK1 and WNK4) or 3 mM MnCl2 (WNK2 and WNK3), 0.01% Tween-20 (WNK1, WNK3 and WNK4) or 0.02% Tween-20 (WNK2), 1 mM TCEP, 2% DMSO, 1 uM ATP (WNK1, WNK3 and WNK4) or 2 uM ATP (WNK2), 1 uCi [gamma-33P]ATP (WNK1, WNK2, WNK4) or 0.25 uCi [gamma-33P]ATP (WNK3), WNK kinase enzyme (5 nM WNK1, 10 nM WNK2, 5 nM WNK3 or 10 nM WNK4) and compound at the desired concentration. The plate was sealed with a clear adhesive cover and mixed for 20 s at 800 r.p.m. on a bench top plate shaker. The plate was then placed in a 25 °C shaking incubator at 175 r.p.m for 3 h (WNK1 and WNK4), 2 h (WNK3) or 1 h (WNK2). The kinase reaction was stopped by the addition of 50 ul of 45 mM EDTA, 0.01% Tween-20, and 20 mM HEPES, pH 7.3. The content of each well was then aspirated, and the well was washed three times with 300 ul of 150 mM NaCl, 0.02% Tween-20, and 50 mM Tris-HCl pH 7.4. Incorporation of 33P into the bound MBP substrate was measured using a MicroBeta TriLux LSC and Luminescence plate counter.

The target of experiment [2] is T1, Serine/threonine-protein kinase WNK1 [1-491]. Briefly: In vitro OSR1 Phosphorylation Assay (OSR1). The following applies: pH 7.3; 4 °C. As to the method: 0.2 nM GST-hWNK1(1-491) (Carna Biosciences, cat# 05-179); 3.5 ug/ml GST-OSR1; 20 mM HEPES; 0.01% Tween; 5 mM MnCl2; 1 mM TCEP; 2% DMSO; 0.5 uM ATP, pH 7.3 (total volume 40 ul) were incubated for 15 min at room temperature. Samples were […] mixed with Laemmli sample buffer and resolved on a 10% Tris-glycine gel, and transferred to nitrocellulose. Membranes were blocked in 5% non-fat milk dissolved in Tris-buffered saline with tween (TBST) for 30 min, washed 3x for 10 min in TBST and incubated with phospho-OSR1 antibody (1:1,000; see Reagents section) at […] overnight. Blots were again washed with TBST and incubated with HRP-conjugated anti-rabbit IgG (1:2,500; catalog # 7074, Cell Signaling) at room temperature for 30 min. Blots were again washed and developed with SuperSignal West Femto Maximum Sensitivity Chemiluminescent Substrate for HRP (Thermo Scientific), and quantified with a Fujifilm LAS-3000 Luminescent Image Analyzer.

The target in experiment [3] is T2, Serine/threonine-protein kinase WNK1 [1-434] (Homo sapiens, UniProt Q9H4A3).
T2 construct: 1-434
T2 sequence (Q9H4A3 1-434): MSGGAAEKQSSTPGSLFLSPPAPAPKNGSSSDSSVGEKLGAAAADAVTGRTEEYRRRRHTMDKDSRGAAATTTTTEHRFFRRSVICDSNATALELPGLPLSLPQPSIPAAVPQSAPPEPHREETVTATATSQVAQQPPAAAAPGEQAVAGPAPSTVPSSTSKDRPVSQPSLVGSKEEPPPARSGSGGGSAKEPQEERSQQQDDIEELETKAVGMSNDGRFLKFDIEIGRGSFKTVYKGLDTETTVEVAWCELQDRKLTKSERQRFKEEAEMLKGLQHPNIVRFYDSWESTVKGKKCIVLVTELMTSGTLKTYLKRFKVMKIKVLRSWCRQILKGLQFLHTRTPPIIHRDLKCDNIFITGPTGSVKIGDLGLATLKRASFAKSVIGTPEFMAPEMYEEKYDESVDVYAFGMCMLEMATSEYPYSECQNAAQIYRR
Briefly: In vitro MBP Phosphorylation Assay (MBP). Conditions: pH 7.3; 25 °C. Here is the method:
as §1

Experiment [4] concerns the target T3, Serine/threonine-protein kinase WNK1 [166-489] (Homo sapiens, UniProt Q9H4A3).
T3 construct: 166-489
Briefly: In vitro MBP Phosphorylation Assay (MBP). Conditions: pH 7.3; 25 °C. As to the method:
as §1

The target in experiment [5] is T4, Serine/threonine-protein kinase WNK1 [1-444] (Homo sapiens, UniProt Q9H4A3).
T4 construct: 1-444
T4 sequence (Q9H4A3 1-444): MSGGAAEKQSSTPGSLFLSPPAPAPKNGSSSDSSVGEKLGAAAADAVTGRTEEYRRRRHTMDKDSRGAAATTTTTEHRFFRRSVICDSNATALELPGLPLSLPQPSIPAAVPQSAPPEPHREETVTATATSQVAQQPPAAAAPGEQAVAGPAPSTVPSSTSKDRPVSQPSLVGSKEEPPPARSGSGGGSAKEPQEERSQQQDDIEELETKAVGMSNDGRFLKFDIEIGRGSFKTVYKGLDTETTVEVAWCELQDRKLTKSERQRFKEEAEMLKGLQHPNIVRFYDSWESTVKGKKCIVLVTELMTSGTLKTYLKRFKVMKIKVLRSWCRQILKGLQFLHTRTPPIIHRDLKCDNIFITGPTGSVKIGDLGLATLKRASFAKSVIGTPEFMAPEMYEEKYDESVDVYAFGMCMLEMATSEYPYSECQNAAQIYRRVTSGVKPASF
Briefly: In vitro MBP Phosphorylation Assay (MBP). The following applies: pH 7.3; 25 °C. As to the method: as §1

T1 sequence (Q9H4A3 1-491): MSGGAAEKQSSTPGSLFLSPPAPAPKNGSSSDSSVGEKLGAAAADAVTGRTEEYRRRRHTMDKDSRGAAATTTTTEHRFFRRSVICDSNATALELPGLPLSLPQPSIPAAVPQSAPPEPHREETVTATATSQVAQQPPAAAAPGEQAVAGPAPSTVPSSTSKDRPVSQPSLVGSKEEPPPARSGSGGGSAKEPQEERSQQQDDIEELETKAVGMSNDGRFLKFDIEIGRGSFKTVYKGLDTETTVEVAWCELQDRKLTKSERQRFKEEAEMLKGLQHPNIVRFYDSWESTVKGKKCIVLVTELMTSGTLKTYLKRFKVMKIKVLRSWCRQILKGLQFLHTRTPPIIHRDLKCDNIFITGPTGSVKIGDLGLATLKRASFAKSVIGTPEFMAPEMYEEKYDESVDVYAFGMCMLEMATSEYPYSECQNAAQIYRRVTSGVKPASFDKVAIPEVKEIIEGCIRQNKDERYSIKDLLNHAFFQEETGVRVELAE
T3 sequence (Q9H4A3 166-489): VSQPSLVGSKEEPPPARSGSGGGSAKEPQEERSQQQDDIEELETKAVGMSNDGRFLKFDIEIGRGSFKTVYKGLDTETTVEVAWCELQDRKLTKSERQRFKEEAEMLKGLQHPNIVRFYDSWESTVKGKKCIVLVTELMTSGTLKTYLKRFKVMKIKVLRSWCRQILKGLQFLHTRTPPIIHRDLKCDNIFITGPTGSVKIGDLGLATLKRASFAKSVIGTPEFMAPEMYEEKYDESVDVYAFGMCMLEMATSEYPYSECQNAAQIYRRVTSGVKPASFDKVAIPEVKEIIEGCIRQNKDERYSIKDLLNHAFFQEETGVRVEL

`COc1ccc(CC(=O)N2CCC(n3cncc3C(=O)NCCc3ccccc3)C2)cc1` [(R)-1-(1-(2-(4-methoxyphenyl)acetyl)pyrrolidin-3-yl)-N-phenethyl-1H-imidazole-5-carboxamide (1)]: the midpoint of inhibition in experiment [1], the IC50, lay at 856 nM.

On to `CC(C)(C)NC(=O)c1cncn1C1CCN(c2ccc(-c3nnc(C(F)(F)F)o3)cc2)CC1` [WNK463 (2)], for which the IC50 (in general, the concentration needed to halve the response being measured) in experiment [2] amounted to 41 nM; in experiment [1] it was 5 nM; in experiment [3], 6 nM; in experiment [4], 1 nM; in experiment [5], 9 nM.
